Results from PMC6105164 (Cancer Chemotherapy and Pharmacology, 2018).

Columns and labels:
clinical = settings: human, in vivo; for AUC(0-t): AUC12h
Protocol: This trial was a multiple-ascending dose trial in 28-day cycles. The doses used were 100, 200, 400, 600, 800, and 1000 mg. The initial dose (100 mg) was determined in accordance with the International Conference on Harmonisation of Technical Requirements for Registration of Pharmaceuticals for Human Use-S9 guideline. […] Patients received only the morning dose on day 1 for pharmacokinetics evaluation. […] Grades were determined according to the National Cancer Institute Common Terminology Criteria for Adverse Events (NCI-CTCAE v.4.0).
Blood samples were collected 10 times on day 1 (before drug administration, and 0.5-, 1-, 1.5-, 2-, 4-, 6-, 8-, 12-, and 24-h post-administration), once on days 4, 7, and 14, and 9 times on day 21 (before morning dose, and 0.5, 1, 1.5, 2, 4, 6, 8, and 12 h after morning dose but before evening dose). Urine samples were collected from patients who received 200, 600, or 1000 mg on day 1 (before drug administration, and 0–6-, 6–12-, 12–24-h post-administration).

[1] = test system: patients with KRAS mutations; settings: previous phase II trial; cited from earlier work
[2] = test system: Japanese patients with relapsed/refractory solid tumors; assay: Safety: dose-limiting toxicity and adverse events (NCI-CTCAE v.4.0); type: in vivo, human; settings: for Death: first and repeated regimens
Source text: Treatment was immediately terminated at the patient’s request when DLT occurred; the study physician decided that continuation was inappropriate because of AEs; or if the tumor was classified as progressive disease (PD) according to the Response Evaluation Criteria in Solid Tumor (RECIST) Guideline. In cases of DLT, patients were allowed to continue the regimen with dose adjustments upon providing written agreement.
Patients were registered when up to three patients received ≥ 60% of planned treatment in the regimen before DLT was evaluated for dose escalation. […] According to the DLT and pharmacokinetics data obtained by a given time, the recommended dose was determined and additional three patients were added to the dosing group a posteriori.
To evaluate the safety, vital signs (systolic and diastolic blood pressure, pulse rate, body temperature, and body weight), 12-lead electrocardiogram, clinical laboratory tests, chest X-ray, and performance status [Eastern Cooperative Oncology Group (ECOG)] were evaluated on predefined dates (Supplemental Table S1). Examined items in the clinical laboratory tests are listed in Supplemental Table S2.
AEs were graded in accordance with NCI-CTCAE v.4.0 and recorded. The study physicians determined whether the AEs were drug-related and recorded.

US patients = settings: cited from earlier work

CC(C)=CCC/C(C)=C/CC/C(C)=C/CSc1ccccc1C(=O)O [Salirasib, S-trans, trans-farnesylthiosalicylic acid]
dose at which Cmax and AUCinf were maximal (clinical): 800 mg
dose proportionality of Cmax and AUC12h (power model analyses) (clinical): increased proportionally and in dose-dependent manners
half-life (clinical): 3.5 to 9.11 h
mean Cmax across dose groups (clinical): 1180 to 4870 ng/mL
time to Cmax, median, across dose groups (clinical): 2.10 to 4.05 h
AUC(0-inf) (clinical; 100 mg): 4970 ± 1600 ng·h/mL
CL/F, mean ± SD (clinical; 100 mg): 21.6 ± 6.80 L/h
half-life (clinical; 100 mg): 3.81 ± 0.25 h
tmax, Range (clinical; 100 mg): 1.52 to 3.88 h
AUC(0-t) (clinical; 100 mg, mean ± SD): 4700 ± 1490 ng·h/mL
Cmax (clinical; 100 mg, Cmax, mean ± SD): 1340 ± 473 ng/mL
AUC12h, mean ± SD (clinical; 200 mg): 10,500 ± 4450 ng h/mL
AUC(0-inf) (clinical; 200 mg): 11400 ng·h/mL
CL/F, mean ± SD (clinical; 200 mg): 19.1 ± 7.35 L/h
Cmax, mean ± SD (clinical; 200 mg): 2830 ± 822 ng/mL
half-life (clinical; 200 mg): 4.16 ± 1.13 h
tmax, Range (clinical; 200 mg): 2.13 to 4.00 h
AUC(0-t) (clinical; 200 mg, mean ± SD): 10400 ng·h/mL
Cmax (clinical; 200 mg, Cmax, mean ± SD): 2610 ± 837 ng/mL
AUC12h, mean ± SD (clinical; 400 mg): 14,800 ± 3520 ng h/mL
AUC(0-inf) (clinical; 400 mg): 20300 ng·h/mL
CL/F, mean ± SD (clinical; 400 mg): 20.1 ± 3.83 L/h
Cmax, mean ± SD (clinical; 400 mg): 3630 ± 876 ng/mL
half-life (clinical; 400 mg): 4 ± 1.88 h
AUC(0-t) (clinical; 400 mg, mean ± SD): 18000 ng·h/mL
Cmax (clinical; 400 mg, Cmax, mean ± SD): 3250 ± 1440 ng/mL
AUC12h, mean ± SD (clinical; 600 mg): 18,700 ± 4710 ng h/mL
AUC(0-inf) (clinical; 600 mg): 18500 ng·h/mL
CL/F, mean ± SD (clinical; 600 mg): 33.0 ± 5.25 L/h
Cmax, mean ± SD (clinical; 600 mg): 4500 ± 1580 ng/mL
half-life (clinical; 600 mg): 3.5 ± 0.39 h
tmax, Range (clinical; 600 mg): 1.42 to 4.00 h
AUC(0-t) (clinical; 600 mg, mean ± SD): 16900 ng·h/mL
Cmax (clinical; 600 mg, Cmax, mean ± SD): 4870 ± 2390 ng/mL
Tmax (clinical; 600 mg, Median): 2.1 h
Tmax (clinical; 600 mg, Range): 2 to 4 h
AUC12h, mean ± SD (clinical; 800 mg): 16,300 ± 6240 ng h/mL
AUC(0-inf) (clinical; 800 mg): 26600 ng·h/mL
CL/F, mean ± SD (clinical; 800 mg): 30.7 ± 4.55 L/h
Cmax, mean ± SD (clinical; 800 mg): 4790 ± 1100 ng/mL
dose proportionality of Cmax and AUCinf (power model analyses) (clinical; 800 mg): increased proportionally until 400 mg in dose-dependent manners
half-life (clinical; 800 mg): 3.67 ± 0.81 h
tmax, Range (clinical; 800 mg): 2.02 to 5.93 h
AUC(0-t) (clinical; 800 mg, mean ± SD): 23800 ng·h/mL
Cmax (clinical; 800 mg, Cmax, mean ± SD): 3840 ± 2090 ng/mL
Tmax (clinical; 800 mg, Median): 2.98 h
Tmax (clinical; 800 mg, Range): 1.42 to 5.98 h
AUC12h, mean ± SD (clinical; 1000 mg): 15,700 ± 9100 ng h/mL
Cmax, mean ± SD (clinical; 1000 mg): 4990 ± 1210 ng/mL
half-life (clinical; 1000 mg): 9.11 ± 9.79 h
AUC(0-t) (clinical; 1000 mg, mean ± SD): 22400 ng·h/mL
Cmax (clinical; 1000 mg, Cmax, mean ± SD): 2630 ± 1450 ng/mL
Tmax (clinical; 1000 mg, Range): 2 to 3.97 h
Cmax (clinical; mean Cmax across dose groups): 1340 to 4990 ng/mL
AUC(0-t) (clinical; po, 100 mg, mean ± SD): 4610 ng·h/mL
Cmax (clinical; po, 100 mg, Cmax, mean ± SD): 1180 ng/mL
AUC(0-inf) (clinical; po, 1000 mg): 26900 ng·h/mL
partial response (PR) [1]: no patients achieved PR
Death ([2]; 100 mg twice-daily): 0 (0.0) N (%)
Death ([2]; 200 mg twice-daily): 0 (0.0) N (%)
Death ([2]; 400 mg twice-daily): 0 (0.0) N (%)
Death ([2]; 600 mg twice-daily): 0 (0.0) N (%)
Death ([2]; 800 mg twice-daily): 0 (0.0) N (%)
Death ([2]; 1000 mg twice-daily): 0 (0.0) N (%)
Death ([2]; Total, all dose groups): 0 (0.0) N (%)
deaths during the treatment period, in words ([2]; all dose groups): No patients died
AEs observed at grade ≥ 3: ALP increased ([2]; human, in vivo): 3 (14.3) N (%)
AEs observed at grade ≥ 3: AST increased ([2]; human, in vivo): 1 (4.8) N (%)
AEs observed at grade ≥ 3: Amylase increased ([2]; human, in vivo): 1 (4.8) N (%)
AEs observed at grade ≥ 3: Anemia ([2]; human, in vivo): 2 (9.5) N (%)
AEs observed at grade ≥ 3: Ascites ([2]; human, in vivo): 1 (4.8) N (%)
AEs observed at grade ≥ 3: Bilirubin increased ([2]; human, in vivo): 1 (4.8) N (%)
AEs observed at grade ≥ 3: Cancer pain ([2]; human, in vivo): 1 (4.8) N (%)
AEs observed at grade ≥ 3: Cholestatic jaundice ([2]; human, in vivo): 1 (4.8) N (%)
AEs observed at grade ≥ 3: Decreased appetite ([2]; human, in vivo): 1 (4.8) N (%)
AEs observed at grade ≥ 3: Diarrhea ([2]; human, in vivo): 2 (9.5) N (%)
AEs observed at grade ≥ 3: Hemoglobin decreased ([2]; human, in vivo): 2 (9.5) N (%)
AEs observed at grade ≥ 3: Hypercalcemia ([2]; human, in vivo): 1 (4.8) N (%)
AEs observed at grade ≥ 3: Hyponatremia ([2]; human, in vivo): 2 (9.5) N (%)
AEs observed at grade ≥ 3: Hypophosphatemia ([2]; human, in vivo): 1 (4.8) N (%)
AEs observed at grade ≥ 3: Lymphopenia ([2]; human, in vivo): 1 (4.8) N (%)
AEs observed at grade ≥ 3: Troponin T increased ([2]; human, in vivo): 1 (4.8) N (%)
AEs observed at grade ≥ 3: γ-GTP increased ([2]; human, in vivo): 3 (14.3) N (%)
AEs observed in ≥ 3 patients: Abdominal pain ([2]; human, in vivo): 6 (28.6) N (%)
AEs observed in ≥ 3 patients: Decreased appetite ([2]; human, in vivo): 9 (42.9) N (%)
AEs observed in ≥ 3 patients: Diarrhea ([2]; human, in vivo): 18 (85.7) N (%)
AEs observed in ≥ 3 patients: Nausea ([2]; human, in vivo): 6 (28.6) N (%)
AEs observed in ≥ 3 patients: Vomiting ([2]; human, in vivo): 4 (19.0) N (%)
All AEs ([2]; human, in vivo): 21 (100) N (%)
All drug-related AEs ([2]; human, in vivo): 19 (90.5) N (%)
Discontinuation because of AEs ([2]; human, in vivo): 0 (0.0) N (%)
Discontinuation because of drug-related AEs ([2]; human, in vivo): 0 (0.0) N (%)
Dose-limiting toxicity (DLT) ([2]; human, in vivo): 0 (0.0) N (%)
Patients with AEs of grade ≥ 3 ([2]; human, in vivo): 9 (42.9) N (%)
Patients with drug-related AEs of grade ≥ 3 ([2]; human, in vivo): 4 (19.0) N (%)
Serious AEs ([2]; human, in vivo): 1 (4.8) N (%)
Serious drug-related AEs ([2]; human, in vivo): 0 (0.0) N (%)
patients in whom AEs were observed ([2]; human, in vivo): 21 patients
dose considered safe and tolerable ([2]; human, in vivo, 28 days): up to 1000 mg
AEs of grade ≥ 3, in words ([2]; in vivo): not observed
Dose-limiting toxicity (DLT), in words ([2]; in vivo): no DLT was observed
maximum tolerable dose ([2]; in vivo): No maximum tolerable dose was discerned
patients with drug-related AEs, in words ([2]; in vivo): in all patients except two
serious AE, in words ([2]; in vivo): One serious AE (ascites)
drug-related AEs (US patients; US patients on 800-mg regimen): all patients on 800-mg regimen experienced drug-related AEs
Dose-limiting toxicity (DLT) (US patients; phase I trial in the US patients, up to 800 mg): no DLT was observed up to 800 mg
